Assay results: US11155552B2, “Rutaecarpine analogs and applications thereof” (TAIPEI MEDICAL UNIVERSITY, priority 2018, dated 2021)

Assays:
KLF10 KO mice [1] = test: Blood-air-barrier thickness by TEM in OVA/Alum-challenged KLF10 KO mice; type: in vivo; settings: KLF-10 KO mice; oral; OVA/Alum group 586 nm, control group 348 nm; FIG. 6
Procedure: Blood-Air-Barrier (alveolar-capillary membrane), gas exchanging region of the lungs, was measured to perform the lung function. After the KLF-10 KO mice were challenged with OVA/Alum and oral administration of RUT or F-RUT, the lung was harvested to measure the thickness of blood-air-barrier by TEM. The average thickness of blood-air-barrier was significant increased in OVA/Alum group (586 nm compared to 348 nm in control group) and reversed by RUT or F-RUT (418 and 393 nm, respectively), see FIG. 6.

iNOS = iNOS protein expression in LPS-treated RAW264.7 macrophages (Western blot); type: cell-based; settings: FIG. 2(a)
Procedure: (§1) Protein samples were separated and resolved by sodium dodecylsulfate polyacrylamide gel electrophoresis (SDS-PAGE) and electrotransferred onto a polyvinylidene difluoride (PVDF) membrane. The membrane was incubated with a primary antibody at 4° C. overnight, and then incubated with a horseradish peroxidase (HRP)-conjugated secondary immunoglobulin G (IgG) antibody; immunoreactive bands were visualized with PerkinElmer enhanced chemiluminescent reagents.

eNOS = eNOS phosphorylation in human aortic endothelial cells (immunoblotting); type: cell-based; settings: HAECs; 20 μM; 15 min; normalized with total eNOS
Procedure: as §1
(§2) TRPV1 is reportedly present in ECs of arteries. To validate the expression of TRPV1 in the endothelium, the TRPV1 protein of human aortic ECs (HAECs) was detected using immunoblotting; the method of Western Blot Analysis has been stated in Example 4. F-RUT treatment (20 μM) for 15 min increased TRPV1 protein amounts two-fold compared to the control group after normalization with α-tubulin levels (FIG. 4). The effect of F-RUT on the phosphorylation of eNOS in HAECs is further examined because NO production is consequently regulated by the phosphorylation of eNOS.

NF-κB = test: NF-κB-dependent luciferase reporter assay in LPS-induced macrophages; type: cell-based; settings: 0-2.5 μM; LPS 40 ng/mL 24 h; FIG. 2(b)
Procedure: RAW264.7 macrophages were seeded in a 96-well plate with DMEM. Then, cells were transfected with the pGL4.32 [luc2P/NF-κB-RE/Hygro] (Promega, Madison, Wis., USA) plasmid reporter gene using TurboFect Transfection Reagent (Fermentas, Glen Burnie, Md., USA). At 24 h after transfection, cells were treated with LPS (40 ng/mL) and F-RUT for 24 h in serum-free medium. Then the luciferase activity was detected by the luminescence measured in a luminescence microplate reader (Thermo Varioskan Flash, Waltham, Mass., USA) using a ONE-Glo luciferase assay kit (Promega). Luciferase activities were normalized to protein concentrations.

CL1-3 = test: MTT cell viability assay, CL1-3; type: cell-based; settings: CL1-3 cells; 0-20 μM; 24 h; FIG. 1(c)
Procedure: (§3) An MTT assay to test cell viability was performed based on the conversion of the yellow tetrazolium salt to the purple formazan product. Cells (10^4 cells/well) were grown in a 96-well plate supplemented with standard culture medium. Cells were treated with RUT and F-RUT (0-20 μM) for 24 h. An MTT stock solution (5 mg of MTT/mL of phosphate-buffered saline; PBS) was added to the growing cultures for 2 h. The absorbance was measured with a spectrophotometer at 560 nm. DMSO alone was measured as a reading control. Data were reported as the mean±SEM values of five independent determinations.

TRPV1 = TRPV1 protein in human aortic endothelial cells (immunoblotting); type: cell-based; settings: HAECs; 20 μM; 15 min; normalized with α-tubulin
Procedure: as §1, §2

TNF-α = TNF-α release by LPS-treated RAW264.7 macrophages (mouse TNF-α Quantikine kit); type: cell-based; settings: FIG. 1(b)
Procedure: FIGS. 1A thru 1C show the effects of 10-fluoro-2-methoxyrutaecarpine (F-RUT) on nitric oxide (NO) and tumor necrosis factor (TNF)-α release by lipopolysaccharide (LPS)-treated (40 ng/mL) RAW264.7 macrophages: (a) NO levels were detected in culture medium using the Griess reaction; (b) TNF-α release in cell supernatants was detected using a mouse TNF-α Quantikine kit; (c) Cell viability upon F-RUT and rutaecarpine (RUT) treatment for 24 h in an MTT assay. Values are expressed as the mean±SE. *p<0.05, **p<0.01.
(§4) NO production was evaluated by measuring the nitrite concentration in supernatants of cultured RAW264.7 macrophages. Cells were first seeded at a density of 2×10^5 cells/mL in 24-well plates for 24 h, followed by co-treatment with different concentrations of F-RUT with lipopolysaccharide (LPS) (40 ng/mL) for another 24 h. The amount of nitrite in cell culture supernatants was detected using the Griess reagent (1% sulfanilamide in 5% phosphoric acid and 0.1% naphthylethylenediamine dihydrochloride in water). Data are reported as the mean±standard error of the mean (SEM) values of three independent determinations.

A2780 cells [2] = test: Transwell Matrigel cell invasion assay; type: cell-based; settings: 0-2.5 μM, 24 h, FIG. 3(b)
Procedure: A2780 cell invasion was evaluated using 24-well transwell inserts (8-μm-pore filters, Merck Millipore) individually coated with Matrigel (BD Biosciences, Bedford, Mass., USA). A2780 cells (2×10^4 cells in each well) were cultured for 24 h with serum-free minimum essential medium (MEM) and then treated with F-RUT (1.25 or 2.5 μM) for another 24 h in the upper chamber of the transwell. Medium containing 10% FBS was placed in the lower chamber. At the end of incubation, non-migrated cells were removed using a cotton swab; cells that had penetrated to the opposite surface of the filter were fixed with 4% formaldehyde and stained with 2% crystal violet. Stained cells were counted and photographed under a phase-contract optical microscope at 200× magnification. Three independent experiments were performed as described elsewhere.

H460 = test: MTT cell viability assay, H460; type: cell-based; settings: H460 cells; 0-20 μM; 24 h; FIG. 1(c)
Procedure: as §3

RAW264.7 = test: MTT cell viability assay, RAW264.7; type: cell-based
Procedure: as §3

COX-2 [3] = test: COX-2 enzyme activity
BALB/c mice = test: Lung inflammation in OVA/alum-challenged BALB/c mice; type: in vivo; settings: alternate-day oral administration, FIG. 5(a)
Procedure: (§5) BALB/c mice (six weeks of age) were obtained from the Animal Center of the College of Medicine, National Taiwan University (Taipei, Taiwan), and sensitized with an intraperitoneal injection of 20 μg of ovalbumin (OVA) emulsified in 2 mg of aluminum hydroxide in a total volume of 200 μL phosphate-buffered saline (PBS) on day 0, and boosted with 50 μg of OVA emulsified in 4 mg of aluminum hydroxide on days 14 and 28. RUT or F-RUT was given by oral administration on days 30, 32, 34, 36, and 38. For post-challenge, all mice were treated intranasally with OVA (100 μg in a total volume of 40 μL PBS) on days 40, 41, 42, and 43. At 24 h after the last OVA challenge, mice were sacrificed, and their organs were collected. All experimental procedures were reviewed and approved by the Institutional Animal Care and Use Committee or Panel. Lung tissues were fixed in 4% paraformaldehyde (sc-281692; Santa Biotechnology) and embedded in paraffin. Tissue sections were made at a 5-μm thickness, and stained with hematoxylin and eosin (H&E) solution for examination of inflammation.

RAW264.7 macrophages = test: NO production (nitrite, Griess reagent) by LPS-treated RAW264.7 macrophages; type: cell-based; settings: LPS 40 ng/mL co-treatment 24 h; 0-20 μM; FIG. 1(a)
Procedure: The RAW264.7 macrophage cell line and A2780 ovarian carcinoma cells were grown in Dulbecco's modified Eagle medium (DMEM) containing 10% fetal bovine serum (FBS), 100 U/mL penicillin, 100 μg/mL streptomycin, 1 mM sodium pyruvate, 4.5 g/L glucose, 4 mM 1-glutamine, and 1.5 g/L sodium bicarbonate at 37° C. in a humidified atmosphere with 5% CO2. Primary human aortic ECs (HAECs) were grown in a MesoEndo Endothelial Cell Growth Medium Kit (Cell Applications, San Diego, Calif., USA) supplemented with 10% FBS at 37° C. in a humidified atmosphere with 5% CO2.
as §4

KLF10 KO mice [4] = test: Lung inflammation and collagen formation in OVA/alum-challenged KLF10 KO mice; type: in vivo
Procedure: as §5
KLF10 gene is regulated by transforming growth factor (TGF)-β/Smad. Deletion of Klf10 in mice is associated with significant inflammation of the lungs challenged with OVA/alum for 44 days. In another experiment, KLF-10 KO mice was used. […]

A2780 cells [5] = test: Wound-healing cell migration assay; type: cell-based; settings: 0-5 μM, 0-24 h, FIG. 3(a)
Procedure: A2780 cells were cultured at a density of 2×10^5 cells/well in 6-well plates and incubated at 37° C. for 24 h. A centerline in the cells was scratched using a 200-μL pipette tip and washed with PBS. Then, new complete medium was added and treated with or without 1 and 2.5 μM of F-RUT for 24 h. At the endpoint of incubation, cells were examined and photographed with an optical microscope. The distance between the edges of the scratched area was measured and calculated to estimate the migratory ability of cells.
As illustrated in FIG. 3(a), wound-healing assays used an ovarian carcinoma A2780 cell line in the presence of F-RUT (0-5 μM) for 0-24 h. The migration rate was measured using imaging software, and Student's t-test was used for the statistical analysis.

COX-2 [6] = test: COX-2 protein expression in LPS-treated RAW264.7 macrophages (Western blot); type: cell-based; settings: FIG. 2(a)
Procedure: as §1

zebrafish = test: LPS-induced ROS level in zebrafish; type: in vivo; settings: 5 ng/ml F-RUT, LPS 10 and 20 ng/ml, FIG. 7

COX-2 enzyme activity (COX-2 [3]) | SMILES | average thickness of blood-air-barrier (KLF10 KO mice [1]) | iNOS protein expression (iNOS) | increase of phosphorylation of eNOS compared to the control group (eNOS) | LPS-induced NF-κB transcriptional activity (NF-κB) | cytotoxicity (CL1-3) | increase of TRPV1 protein amounts compared to the control group (TRPV1) | TNF-α released into the medium (TNF-α) | cell invasion (A2780 cells [2]) | cytotoxicity (H460) | cytotoxicity (RAW264.7; RAW264.7 cells, 0-20 μM, 24 h, FIG. 1(c)) | cytotoxicity compared to RUT (RAW264.7; compared to RUT) | OVA/alum-induced lung inflammation (BALB/c mice) | NO production (RAW264.7 macrophages) | collagen formation around the bronchus (KLF10 KO mice [4]; KLF10 KO mice, oral administration, 25% in OVA/Alum group, FIG. 5(c)) | OVA/alum-induced lung inflammation (KLF10 KO mice [4]; KLF-10 KO mice, alternate-day oral administration, FIG. 5(b)) | cell migration (A2780 cells [5]) | COX-2 protein expression (COX-2 [6]) | LPS-induced ROS level (zebrafish)
 | O=c1c2ccccc2nc2n1CCc1c-2[nH]c2ccccc12 [RUT, Rutaecarpine] | 418 nm |  |  |  |  |  |  |  |  |  |  |  |  |  |  |  |  | 
the enzyme activity is also inhibited | COc1ccc2c(=O)n3c(nc2c1)-c1[nH]c2ccc(F)cc2c1CC3 [F-RUT, 10-fluoro-2-methoxyrutaecarpine] | 393 nm | suppressed their expressions in a concentration-dependent manner | 1.4 fold | inhibited LPS-induced NF-κB transcriptional activity | substantially no cytotoxicity | two-fold | suppressive effect of TNF-α released into the medium | invasion inhibitory activity | substantially no cytotoxicity | substantially no cytotoxicity | less cytotoxicity | ameliorated the OVA/alum-induced lung inflammation | suppressed NO production in a concentration-dependent (0-20 μM) manner | 18% | ameliorated the OVA/alum-induced lung inflammation | significant effects against cell migration | suppressed their expressions in a concentration-dependent manner | suppressed the LPS-induced ROS
